This note sets out measurements from PMC12596195, “Mei5–Sae3 stabilizes both active and inactive forms of Dmc1 filaments independently of its impact on ATP hydrolysis” (Nucleic Acids Research, 2025).

The target of one assay is T1, ScDmc1 (Saccharomyces cerevisiae, UniProt P25453, E157D).
T1 construct: gene DMC1; N-terminal 6x-His tag (kept), expressed in E. coli; nucleoprotein filament on 90 nt ssDNA
T1 sequence (P25453 1-334 E157D): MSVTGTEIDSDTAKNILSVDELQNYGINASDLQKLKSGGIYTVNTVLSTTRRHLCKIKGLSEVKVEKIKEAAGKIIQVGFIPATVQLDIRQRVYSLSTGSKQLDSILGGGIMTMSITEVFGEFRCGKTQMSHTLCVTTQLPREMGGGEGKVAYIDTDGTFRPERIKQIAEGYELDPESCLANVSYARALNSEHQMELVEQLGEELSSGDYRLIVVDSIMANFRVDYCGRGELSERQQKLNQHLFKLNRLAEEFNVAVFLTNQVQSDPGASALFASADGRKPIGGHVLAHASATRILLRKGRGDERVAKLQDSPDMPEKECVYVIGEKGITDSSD
Nature of the assay: nitrocellulose filter binding. The conditions noted are these: 3 µM Dmc1, 90 nt ssDNA (6 µM nt), 5 mM Mg2+, 70 µM Ca2+, pH 7.5, 30°C; labelled compound (alpha-32P).

Another assay has as its target T2, ScDmc1 (Dmc1–WT) (Saccharomyces cerevisiae, UniProt P25453).
T2 construct: N-terminal 6x-His tag (kept), expressed in E. coli; nucleoprotein filament on 90 nt ssDNA
T2 sequence (P25453 1-334): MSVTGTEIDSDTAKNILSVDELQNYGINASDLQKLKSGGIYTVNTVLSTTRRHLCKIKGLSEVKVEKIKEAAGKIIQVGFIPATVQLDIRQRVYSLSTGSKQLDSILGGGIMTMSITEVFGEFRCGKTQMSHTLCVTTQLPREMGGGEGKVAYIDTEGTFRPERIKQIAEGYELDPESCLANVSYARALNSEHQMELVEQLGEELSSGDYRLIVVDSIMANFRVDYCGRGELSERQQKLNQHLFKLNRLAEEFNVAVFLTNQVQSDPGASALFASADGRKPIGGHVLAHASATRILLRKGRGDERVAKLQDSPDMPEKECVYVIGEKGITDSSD
Nature of the assay: nitrocellulose filter binding. The conditions noted are these: 3 µM Dmc1, 90 nt ssDNA (6 µM nt), 5 mM Mg2+, 70 µM Ca2+, pH 7.5, 30°C; labelled compound (alpha-32P); read-out: KD (apparent). From the text: nitrocellulose filter binding on ScDmc1 (Dmc1–WT) | Dmc1–WT binds ATP with the same apparent affinity in the presence and absence of Mei5–Sae3

Turning to `Nc1ncnc2c1ncn2[C@@H]1O[C@H](COP(=O)(O)OP(=O)(O)OP(=O)(O)O)[C@@H](O)[C@H]1O` [ATP], the nitrocellulose filter binding result at ScDmc1 is “ATP binding activity of Dmc1–E157D and found it was significantly reduced”. Besides, the Kd at ScDmc1 (Dmc1–WT) is 5 to 6 µM.
